Experimental data taken from a melting point compilation (Tetko et al.).

SMILES	melting point [°C]
CCOC(=O)Nc1ccc(NC(C)c2ccccn2)cc1 (stereo not given)	145 to 147
COc1ccccc1-c1ncc(C(=O)O)[nH]1	219 to 221
CCCCCOc1ccc2cc(C(=O)O)[nH]c2c1	162 to 164
Cn1c(C(F)(F)F)nc2cc(C(=O)O)ccc21	254 to 256
N#Cc1ccc2c(n1)CCCC2	69 to 71
CS(=O)(=O)N1CCc2cc(C(=O)O)ccc21	230 to 232
Cc1nn(C)c(C)c1C(CC(=O)O)C(F)(F)F (stereo not given)	130 to 132
c1cc(-c2ccn[nH]2)ccn1	154 to 156
CC(=O)c1ccc(F)cc1OC(F)F	55 to 57
O=C(O)c1c2c(nc3ccccc13)CCN(Cc1ccccc1)C2	224 to 226
CCc1cc(Cl)nc(-c2ccncc2)n1	99 to 101
Nc1ccc(F)c(-n2nnnc2C2CC2)c1	93 to 95
O=C1CC(=O)CC2(CCCCC2)C1	169 to 171
Cn1ncc(CN)c1N	91 to 93
Cc1nc(Br)ccc1C(=O)O	155 to 157
Nc1nc2cc(Cl)ccc2s1	197 to 199
Cc1cc(C(=O)NN)c(C)o1	132 to 134
Nc1ncn(Cc2ccccc2)n1	130 to 132
Cc1[nH]nc(C(=O)O)c1[N+](=O)[O-]	183 to 185
CN1CCc2nc3ccccc3c(C(=O)O)c2C1	254 to 256
COc1ccc2nc(C3CC3)cc(C(=O)O)c2c1	219 to 221
O=C(O)c1ccc(F)c(S(=O)(=O)NC2CC2)c1	226 to 228
Nc1cccnc1Nc1ccc2c(c1)C(=O)NC2=O	269 to 271
O=C(CCl)/N=c1\sccn1Cc1ccc(Cl)cc1Cl	128 to 130
NN=C(Nc1ccccc1)c1cc(F)cc(F)c1	99 to 101

SMILES	melting point [°C]
CC(=O)Nc1cc(N)c(F)cc1F	104 to 106
O=c1[nH]c(CCl)nc2c(Br)cc(Br)cc12	248 to 252
Nc1cccc(N2C(=O)CC3(CCCC3)C2=O)c1	136 to 138
Nc1ccn(Cc2ccsc2)n1	43 to 45
O=C(CCl)NCc1ccccc1S(=O)(=O)N1CCOCC1	123 to 125
N#Cc1ccc(S)c(F)c1	59 to 61
O=C(Nc1cccc2c1CCCN2)c1ccc(F)cc1	156 to 158
O=C(O)C1(c2ccc(OCc3ccccc3)cc2)CCOCC1	151 to 153
CCOC(=O)COc1ccc(O)cc1	121 to 123
O=C(O)CCCNS(=O)(=O)c1ccc(Cl)c(Cl)c1	123 to 125
O=C(O)CCC(=O)NCC(=O)c1ccccc1F	156 to 158
CCNS(=O)(=O)c1ccc(C)c(C(=O)O)c1	181 to 183
O=C(O)C=Cc1cn(-c2ccccc2)nc1-c1cccs1	224 to 226
Cc1cc(Br)cc2c1NC(=O)C2=O	298 to 300
O=C1N(Cc2ccccc2)CCN1S(=O)(=O)Cl	112 to 114
O=C(NC1CC1)c1ccc(Cl)c([N+](=O)[O-])c1	130 to 132
O=C(O)C1Cc2ccccc2CN1S(=O)(=O)c1ccccc1 (stereo not given)	138 to 140
CS(=O)(=O)Nc1ccc(C(F)(F)F)cc1N	126 to 128
COc1ccc(-c2cc(C(=O)O)c3sc(N4CCCCC4)nc3n2)cc1OC	284 to 286
CCOc1cc2c(cc1OCC)CNCC2	108 to 110
O=C(O)c1cc(OCC2CC2)c2ccccc2n1	164 to 166
O=C(O)c1ccc(OCC2CC2)cc1	254 to 256
NC(=O)CC1CC1	125 to 127
O=C1CN(c2ccccc2)C(=O)N1	190 to 192
O=C(c1ccc(F)cc1)c1cnc2ccccc2c1	89 to 91

SMILES	melting point [°C]
NS(=O)(=O)c1cncc(Br)c1	199 to 201
CC(C)(C)OC(=O)N1CC(=O)NC(=O)C1	129 to 131
O=C(O)Cc1csc(NC(=O)Cc2cccs2)n1	200 to 202
O=C(O)c1cc(-c2cc(F)ccc2F)no1	187 to 189
O=C(O)/C=C/c1csc2ccccc12	225 to 227
CCOc1cc(Cl)ccc1C#N	81 to 83
COC(=O)c1n[nH]c(N)n1	218 to 222
CCOC(=O)c1ncsc1NC	92 to 94
CC1(C)CC(=O)c2cc(Br)cc(Cl)c2O1	48 to 50
Cc1cnn(Cc2ccc(N)cc2)c1	78 to 80
O=C(O)C1CC(=O)N(CCc2ccccc2)C1 (stereo not given)	188 to 190
O=C(O)c1cc(N=Nc2ccc(S(=O)(=O)Nc3ccccn3)cc2)ccc1O	260 to 265
CC1(C)CC(=O)c2cncnc2C1	67 to 69
O=C(O)CCc1nc2c(F)cccc2[nH]1	185 to 187
CCOC(=O)c1ccccc1C#N	59 to 61
CNc1cc(C(=O)O)c2ccccc2n1	346 to 348
CN(C)C(=O)CC(=O)O	70 to 72
O=C(O)c1ccc(C(=O)Nc2ccccc2)cc1	309 to 311
CCOC(=O)c1nnc(-c2ccccc2)o1	69 to 71
O=C(O)CNC(=O)NCc1ccco1	159 to 161
O=C1Nc2cc3c(cc2C1=O)OCCCO3	230 to 232
CCCCc1ccc(C(=O)CCC(=O)O)cc1	113 to 115
NC(=O)c1ccc(N2CCC(C(=O)O)CC2)nc1	284 to 286
CCn1c(S)nnc1CCC(N)=O	208 to 210
CNC(=O)NC(=O)CCl	155 to 157

SMILES	melting point [°C]
COc1ccc(C(=O)O)cc1-c1ccccc1	220 to 222
Cn1c(N)nc2cc(F)ccc21	152 to 154
CCN(C(=O)N1CCC(C(=O)O)CC1)C(C)C	107 to 109
CC(C)Oc1cc(Br)ccc1C(=O)O	86 to 88
CCCCCC(C)CNC(=S)NN (stereo not given)	48 to 50
O=C1OCC(c2ccc(Cl)cc2)=C1c1cccs1	65 to 67
CCCNC(=S)NN	61 to 63
N#Cc1nccnc1Oc1ccc(N)cc1	170 to 172
CS(=O)(=O)c1ccc(C#N)cc1F	146 to 148
CNc1ncccn1	60 to 62
Cc1nc2ccccc2c(=O)n1-c1ccc(F)cc1	134 to 136
CC(C)(C)OC(=O)NCCc1nc(N)no1	116 to 118
Cn1cc(C#N)c(=O)[nH]c1=O	239 to 241
CC(=O)Nc1cc(C#N)ccc1S(C)(=O)=O	145 to 147
COc1cc(N)ccc1S(N)(=O)=O	241 to 243
O=C(O)CCn1ccc2cc(Cl)ccc21	59 to 61
NC(=O)CCc1ccc([N+](=O)[O-])cc1[N+](=O)[O-]	115 to 117
Cc1cc(C)n2nc(S)nc2n1	259 to 261
Nc1nc2c(s1)COc1ccccc1-2	190 to 192
COC(=O)CCCc1nnc(N)s1	149 to 151
CCOC(=O)C1CC(=O)NN1c1ncccc1Cl (stereo not given)	135 to 137
O=C(O)c1ccc2c(c1)S(=O)(=O)N(C1CC1)C2=O	283 to 285
O=C(Nc1cccc(O)c1)c1cccs1	154 to 156
CCOC(=O)c1n[nH]c(C(O)c2ccccc2)n1 (stereo not given)	49 to 51
CC1(c2ccc(S(N)(=O)=O)cc2)NC(=O)NC1=O (stereo not given)	249 to 251

SMILES	melting point [°C]
NCCc1c[nH]c2cc(Cl)ccc12	104 to 106
CCC(=O)N1CSCC1C(=O)O (stereo not given)	74 to 76
c1ccc(-c2nnn[nH]2)nc1	214 to 216
CC(=O)Nc1ccccc1CC(=O)O	144 to 146
CC(C)c1ncc(C(=O)O)s1	133 to 135
CC(C)Nc1ccc(C(=O)O)cn1	249 to 251
OCC1NCCc2ccccc21 (stereo not given)	71 to 73
COC1(OC)C2(Cl)C3C(=O)C4C5C(=O)C3C1(Cl)C5(Cl)C42Cl (stereo not given)	155 to 157
Cc1cc(OCC(=O)O)no1	123 to 125
Cc1oc2nc[nH]c(=O)c2c1C(=O)O	149 to 151
OCc1nc2cc(Br)ccc2[nH]1	179 to 181
O=C(O)c1ccc(-c2cccs2)cc1F	228 to 230
Sc1nnnn1CCc1ccccn1	193 to 195
Cc1nc(S)oc1C	132 to 134
O=C1CC(c2ccc(Cl)cc2)CC(=O)N1	152 to 154
c1ccc2[nH]c(C3CCNCC3)cc2c1	192 to 194
NC(=O)CCOc1ccccc1F	85 to 87
NNc1ccc(-n2cccn2)nn1	194 to 196
Cc1ccc(NC(=O)C(=O)NN)cc1C	182 to 184
O=C1NCCCc2cc(O)ccc21	219 to 221
CC(Cl)C(=O)N1CCCC(C(N)=O)C1 (stereo not given)	114 to 116
COC(=O)c1cc(F)ccc1CBr	41 to 43
OCc1cc(F)cc(CO)c1O	119 to 121
Cn1cnnc1Sc1ccccc1N	137 to 139
O=C(O)c1c(F)ccc([N+](=O)[O-])c1F	92 to 96

SMILES	melting point [°C]
COc1ccc(C(=O)NCC(=O)O)cc1	165 to 167
CCC(=O)Nc1ccc(S(=O)(=O)Cl)cc1	109 to 111
CC1(C)CC(NC(=O)CCl)CC(C)(C)N1	61 to 63
CCCOc1nc2ccccc2cc1/C=C/C(=O)O	159 to 161
COC(=O)c1ccc(S(=O)(=O)Cl)c([N+](=O)[O-])c1	100 to 102
CC(C)Oc1ccc(Cl)cc1C(=O)O	83 to 85
N#Cc1ccc(Oc2cccc(Cl)c2Cl)nc1	143 to 145
O=C(O)c1occc1-c1ccccc1	142 to 144
Cc1ccccc1-n1c(C)cc(C=O)c1C	71 to 73
CC(NC(=O)CC(F)(F)F)C(=O)O (stereo not given)	105 to 107
N#CC(N)c1cccc(Cl)c1Cl (stereo not given)	114 to 116
Cc1c(C(=O)O)oc2c(F)cccc12	236 to 238
CCn1ccnc1S	78 to 80
COc1ccccc1OCc1ccccc1N	55 to 57
CC1CN(S(=O)(=O)c2ccc(NC(=O)CCl)cc2)CC(C)O1 (stereo not given)	110 to 112
Nn1c(S)nnc1-c1ccncc1	250 to 254
CCc1ccc(S(C)(=O)=O)cc1C(=O)O	151 to 153
OCc1cnc(N2CCOCC2)s1	101 to 103
O=C(O)c1c[nH]c2cc(Cl)ccc12	219 to 221
COCCNc1nc2ccccc2[nH]1	170 to 172
